From patent publication US20130122541A1, “MICROORGANISM PRODUCTION OF HIGH-VALUE CHEMICAL PRODUCTS, AND RELATED COMPOSITIONS, METHODS AND SYSTEMS” (The Regents of the University of Colorado, priority 2010, published 2013)
Converted amounts (≈) assume the structure as drawn. Read-outs that look alike come from different tables or passages of the source.

Key:
[1] = 3-HP preparation: neutralisation of commercial 3-HP to pH 7.0, observation of insoluble matter; format: physicochemical
Description: (§1) 3-HP was obtained from TCI America (Portland, Oreg.). Significant acrylic acid and 2-oxydipropionic contamination was observed via HPLC analysis. Samples were subsequently treated by diethyl ether extraction to remove acrylic acid and a portion of the 2-oxydipropionic contaminants. Samples were then neutralized with 10 M NaOH to a final pH of 7.0. […] The working stock solution was used for the selection and MIC evaluations in this example.
as §1, with “selection, growth rates” for “selection”

[2] = test system: E. coli; assay: microbe, parasite or virus in culture; format: cell-based; settings: for % Increase Over Control: anaerobic; for MIC: Escherichia coli
Procedure: For MIC evaluations, the final results are expressed in chemical agent concentrations determined by analysis of the stock solution by HPLC (i.e., see Subsection IIIb).
The minimum inhibitory concentration (MIC) was determined anaerobically in a 96 well-plate format. […] Media supplements were added according to levels reported in the Supplements Table, where specified. Overnight cultures of strains were grown in triplicate in 5 mL LB (with antibiotic where appropriate). A 1% (v/v) inoculum was introduced into a 5 ml culture of M9 minimal media.

[3] = test system: Yeast strains (S288C background); assay: microbe, parasite or virus in culture; format: cell-based, Saccharomyces cerevisiae; settings: for MIC: Saccharomyces cerevisiae
Procedure: The minimum inhibitory concentration (MIC) was determined anaerobically in a 96 well-plate format. […] A 1% (v/v) inoculum was introduced into a 5 ml culture of SD minimal media without vitamins. After the cells reached mid-exponential phase, the culture was diluted to an OD600 of 0.200. The cells were further diluted 1:5 and a 10 μL aliquot was used to inoculate each well of a 96 well plate (˜10^4 cells per well) to total volume of 100 uL. […] Plates were incubated for 72 hours at 30 C. […] Plates were sealed in biobag anaerobic chambers that contained gas generators for anaerobic conditions and incubated for 72 hours at 30 C.

## O=C(O)CCO [3-HP, 3-hydroxypropionic acid]
[1]; commercial 3-HP (TCI America), ether extracted, neutralized with 10 M NaOH to pH 7.0
  3-HP concentration in excess of which considerable 3-HP polymerization was observed at neutral pH: approximately 35 g/L
[1]; pH 7, aqueous buffer
  solubility: ~35 mg/mL (≈ 389 mM)
[2]; BW25113, EZ Rich media vs M9 control
  % Increase Over Control: 150%
[2]; BW25113, read-out: MIC Assay Result (g/L 3-HP), BW25113, EZ Rich media, supplements none, anaerobic
  MIC: 75 g/L (≈ 833 mM)
[2]; BW25113, read-out: MIC Assay Result (g/L 3-HP), BW25113, M9, supplements none (control), anaerobic
  MIC: 30 g/L (≈ 333 mM)
[2]; BW25113, read-out: MIC Assay Result (g/L 3-HP), anaerobic, strain BX_00002.0: BW25113 wild type, pKK223-mcs1 (control), M9 + Amp (100 μg/mL)
  MIC: 15 g/L
[2]; BW25113, read-out: MIC Assay Result (g/L 3-HP), anaerobic, strain BX_00003.0: BW25113 wild type, pBT-3 (control), M9 + Cm (20 μg/mL)
  MIC: 15 g/L
[2]; BW25113, read-out: MIC Assay Result (g/L 3-HP), anaerobic, strain BX_00118.0: BW25113 wild type, pJ251 (control), M9 + Kan (20 μg/mL)
  MIC: 15 g/L
[2]; BW25113, read-out: MIC Assay Result (g/L 3-HP), anaerobic, strain BX_00138.0: BW25113 wild type, pSmart-LC-Kan (control), M9 + Kan (20 μg/mLl)
  MIC: 25 g/L
[2]; BW25113, read-out: MIC Assay Result (g/L 3-HP), anaerobic, strain BX_00144.0: BW25113 wild type, pSmart-HC-Amp (control), M9 + Amp (100 μg/mL)
  MIC: 25 g/L
[2]; BW25113, read-out: MIC Assay Result (g/L 3-HP), anaerobic, strain BX_00319.0: BW25113 wild type, pK223-aroH, M9 + Amp 100 μg/mL + 1 mM IPTG
  MIC: 20 g/L
[2]; BW25113, read-out: MIC Assay Result (g/L 3-HP), anaerobic, strain BX_00320.0: BW25113 wild type, pK223-metE C645A, M9 + Amp 100 μg/mL + 1 mM IPTG
  MIC: 20 g/L
[2]; BW25113, read-out: MIC Assay Result (g/L 3-HP), anaerobic, strain BX_00322.0: BW25113 wild type, pJ61-speFED, M9 + Kan 20 μg/mL
  MIC: 25 g/L
[2]; BW25113, read-out: MIC Assay Result (g/L 3-HP), anaerobic, strain BX_00323.0: BW25113 wild type, pJ61-aroG, M9 + Kan 20 μg/mL
  MIC: 20 g/L
[2]; BW25113, read-out: MIC Assay Result (g/L 3-HP), anaerobic, strain BX_00324.0: BW25113 wild type, pJ61-thrA, M9 + Kan 20 μg/mL
  MIC: 20 g/L
[2]; BW25113, read-out: MIC Assay Result (g/L 3-HP), anaerobic, strain BX_00325.0: BW25113 wild type, pJ61-asd, M9 + Kan 20 μg/mL
  MIC: 20 g/L
[2]; BW25113, read-out: MIC Assay Result (g/L 3-HP), anaerobic, strain BX_00326.0: BW25113 wild type, pJ61-ilvA, M9 + Kan 20 μg/mL
  MIC: 20 g/L
[2]; BW25113, read-out: MIC Assay Result (g/L 3-HP), anaerobic, strain BX_00327.0: BW25113 wild type, pJ61-cysM, M9 + Kan 20 μg/mL
  MIC: 20 g/L
[2]; BW25113, read-out: MIC Assay Result (g/L 3-HP), anaerobic, strain BX_00357.0: BW25113 wild type, pKK223-aroH*445, M9 + Amp 100 μg/mL + 1 mM IPTG
  MIC: 20 g/L
[2]; BW25113, read-out: MIC Assay Result (g/L 3-HP), anaerobic, strain BX_00358.0: BW25113 wild type, pKK223-aroH*447, M9 + Amp 100 μg/mL + 1 mM IPTG
  MIC: 20 g/L
[2]; BW25113, read-out: MIC Assay Result (g/L 3-HP), anaerobic, strain BX_00359.0: BW25113 wild type, pKK223-aroH*457, M9 + Amp 100 μg/mL + 1 mM IPTG
  MIC: 20 g/L
[2]; BW25113, read-out: MIC Assay Result (g/L 3-HP), anaerobic, strain BX_00360.0: BW25113 wild type, pACYC177 (Kan only)-cynTS, M9 + Kan 20 μg/mL
  MIC: 20 g/L
[2]; BW25113, read-out: MIC Assay Result (g/L 3-HP), anaerobic, strain BX_00362.0: BW25113 wild type, pACYC177 (Kan only)-aroH, M9 + Kan 20 μg/mL + 1 mM IPTG
  MIC: 20 g/L
[2]; BW25113, read-out: MIC Assay Result (g/L 3-HP), anaerobic, strain BX_00363.0: BW25113 wild type, pACYC177 (Kan only)-speB, M9 + Kan 20 μg/mL
  MIC: 20 g/L
[2]; BW25113, read-out: MIC Assay Result (g/L 3-HP), anaerobic, strain BX_00364.0: BW25113 wild type, pACYC177 (Kan only)-metE, M9 + Kan 20 μg/mL + 1 mM IPTG
  MIC: 20 g/L
[2]; BW25113, read-out: MIC Assay Result (g/L 3-HP), anaerobic, strain BX_00365.0: BW25113 wild type, pACYC177 (Kan only)-metC, M9 + Kan 20 μg/mL
  MIC: 20 g/L
[2]; BW25113, read-out: MIC Assay Result (g/L 3-HP), anaerobic, strain BX_00368.0: BW25113 wild type, pBT-3-cynTS, M9 + Cm (20 μg/mL)
  MIC: 20 g/L
[2]; BW25113, read-out: MIC Assay Result (g/L 3-HP), anaerobic, strain BX_00426.0: BW25113 ΔnrdR::frt, pSmart-HC-Amp-cadA, M9 + Amp (100 μg/mL)
  MIC: 26.7 g/L
[2]; strain BX_00311.0 (pSmart-LC-Kan-glyA-ORF)
  % Increase Over Control: 20%
[2]; strain BX_00319.0 (pK223-aroH)
  % Increase Over Control: 33%
[2]; strain BX_00320.0 (pK223-metE C645A)
  % Increase Over Control: 33%
[2]; strain BX_00321.0 (pK223-ct-his-thrA)
  % Increase Over Control: 33%
[2]; strain BX_00322.0 (pJ61-speFED)
  % Increase Over Control: 67%
[2]; strain BX_00323.0 (pJ61-aroG)
  % Increase Over Control: 33%
[2]; strain BX_00324.0 (pJ61-thrA)
  % Increase Over Control: 33%
[2]; strain BX_00325.0 (pJ61-asd)
  % Increase Over Control: 33%
[2]; strain BX_00326.0 (pJ61-ilvA)
  % Increase Over Control: 33%
[2]; strain BX_00327.0 (pJ61-cysM)
  % Increase Over Control: 33%
[2]; strain BX_00357.0 (pKK223-aroH*445)
  % Increase Over Control: 33%
[2]; strain BX_00358.0 (pKK223-aroH*447)
  % Increase Over Control: 33%
[2]; strain BX_00359.0 (pKK223-aroH*457)
  % Increase Over Control: 33%
[2]; strain BX_00360.0 (pACYC177 (Kan only)-cynTS)
  % Increase Over Control: 33%
[2]; strain BX_00362.0 (pACYC177 (Kan only)-aroH)
  % Increase Over Control: 33%
[2]; strain BX_00363.0 (pACYC177 (Kan only)-speB)
  % Increase Over Control: 33%
[2]; strain BX_00364.0 (pACYC177 (Kan only)-metE)
  % Increase Over Control: 33%
[2]; strain BX_00365.0 (pACYC177 (Kan only)-metC)
  % Increase Over Control: 33%
[2]; strain BX_00368.0 (pBT-3-cynTS)
  % Increase Over Control: 33%
[2]; strain BX_00426.0 (ΔnrdR::frt, pSmart-HC-Amp-cadA)
  % Increase Over Control: 7%
[3]; S288C, SD media, supplements none (control), anaerobic
  % Increase Over Control: 0%
[3]; read-out: Average MIC Assay Result (g/L 3-HP), S288C, SD media, supplements none (control), anaerobic
  MIC: 38 g/L (≈ 422 mM)
[3]; read-out: MIC Assay Result (g/L 3-HP), strain YX-022 (BY4722, pyes2.1-Aro3 pRS425-ILV6), SD, anaerobic
  MIC: 50 g/L (≈ 555 mM)
[3]; read-out: MIC Assay Result (g/L 3-HP), strain YX-CJR-001 (BY4709, pRS426 EV, control), SD, anaerobic
  MIC: 40 g/L (≈ 444 mM)
[3]; read-out: MIC Assay Result (g/L 3-HP), strain YX-CJR-005 (BY4709, pYes2.1-Met6), SD, anaerobic
  MIC: 60 g/L (≈ 666 mM)
[3]; read-out: MIC Assay Result (g/L 3-HP), strain YX-CJR-007 (BY4709, pyes2.1-ILV6), SD, anaerobic
  MIC: 50 g/L (≈ 555 mM)
[3]; read-out: MIC Assay Result (g/L 3-HP), strain YX-CJR-008 (BY4709, pyes2.1-ILV1), SD, anaerobic
  MIC: 60 g/L (≈ 666 mM)
[3]; read-out: MIC Assay Result (g/L 3-HP), strain YX-CJR-010 (BY4709, pyes2.1-Thr1), SD, anaerobic
  MIC: 50 g/L (≈ 555 mM)
[3]; read-out: MIC Assay Result (g/L 3-HP), strain YX-CJR-011 (BY4709, pyes2.1-Ser2), SD, anaerobic
  MIC: 50 g/L (≈ 555 mM)
[3]; read-out: MIC Assay Result (g/L 3-HP), strain YX-CJR-013 (BY4709, pyes2.1-ser3), SD, anaerobic
  MIC: 50 g/L (≈ 555 mM)
[3]; read-out: MIC Assay Result (g/L 3-HP), strain YX-CJR-014 (BY4709, pyes2.1-arg2), SD, anaerobic
  MIC: 50 g/L (≈ 555 mM)
[3]; read-out: MIC Assay Result (g/L 3-HP), strain YX-CJR-015 (BY4709, pyes2.1-RNR1), SD, anaerobic
  MIC: 50 g/L (≈ 555 mM)
[3]; read-out: MIC Assay Result (g/L 3-HP), strain YX-CJR-016 (BY4709, pyes2.1-Aro3), SD, anaerobic
  MIC: 50 g/L (≈ 555 mM)
[3]; read-out: MIC Assay Result (g/L 3-HP), strain YX-CJR-018 (BY4709, pyes2.1-Tyr1), SD, anaerobic
  MIC: 50 g/L (≈ 555 mM)
[3]; read-out: MIC Assay Result (g/L 3-HP), strain YX-CJR-021 (BY4709, pYes2.1-Trp1), SD, anaerobic
  MIC: 50 g/L (≈ 555 mM)
[3]; strain YX-022 (pyes2.1-Aro3 pRS425-ILV6) vs control, anaerobic
  % Increase Over Control: 25%
[3]; strain YX-CJR-005 (pYes2.1-Met6) vs YX-CJR-001, anaerobic
  % Increase Over Control: 50%
[3]; strain YX-CJR-007 (pyes2.1-ILV6) vs YX-CJR-001, anaerobic
  % Increase Over Control: 25%
[3]; strain YX-CJR-008 (pyes2.1-ILV1) vs YX-CJR-001, anaerobic
  % Increase Over Control: 50%
[3]; strain YX-CJR-010 (pyes2.1-Thr1) vs YX-CJR-001, anaerobic
  % Increase Over Control: 25%
[3]; strain YX-CJR-011 (pyes2.1-Ser2) vs YX-CJR-001, anaerobic
  % Increase Over Control: 25%
[3]; strain YX-CJR-013 (pyes2.1-ser3) vs YX-CJR-001, anaerobic
  % Increase Over Control: 25%
[3]; strain YX-CJR-014 (pyes2.1-arg2) vs YX-CJR-001, anaerobic
  % Increase Over Control: 25%
[3]; strain YX-CJR-015 (pyes2.1-RNR1) vs YX-CJR-001, anaerobic
  % Increase Over Control: 25%
[3]; strain YX-CJR-016 (pyes2.1-Aro3) vs YX-CJR-001, anaerobic
  % Increase Over Control: 25%
[3]; strain YX-CJR-018 (pyes2.1-Tyr1) vs YX-CJR-001, anaerobic
  % Increase Over Control: 25%
[3]; strain YX-CJR-021 (pYes2.1-Trp1) vs YX-CJR-001, anaerobic
  % Increase Over Control: 25%
